Measured values reported in the NIST ThermoML archive (doi:10.1021/je500513b).
Numbers after ± are expanded uncertainties.

Assay: mn = molality of the nth substance listed, in mol/kg
Conditions: 298.15 K, Pendant drop shape, m2 = 0

| SMILES | surface tension liquid-gas [mN/m] |
| --- | --- |
| O [water] + CCCCCCCCCCCCCC[N+](C)(C)CCCC[N+](C)(C)CCCCCCCCCCCCCC.[Br-].[Br-] | 71.98 ± 16 |
| O [water] + CCCCCCCCCCCC[N+](C)(C)CCC[N+](C)(C)CCCCCCCCCCCC.[Br-].[Br-] | 71.98 ± 2.4 |
| O [water] + CCCCCCCCCCCC[N+](C)(C)CCCC[N+](C)(C)CCCCCCCCCCCC.[Br-].[Br-] | 71.98 ± 2.4 |
| O [water] + CCCCCCCCCCCCCC[N+](C)(C)CCC[N+](C)(C)CCCCCCCCCCCCCC.[Br-].[Br-] | 71.98 ± 18 |
